Assay results reported in patent publication US4699897A, “Biologically active peptides structurally related to regions within growth hormones” (Amgen, priority 1983, dated 1987).
Square brackets hold non-standard residues; d marks the D form. Peptide text beside a SMILES is read from it.

Columns and labels:
[1] = system: insulin-stimulated fat cells of older obese rats; conditions: cited from earlier work
[2] = system: normal female Rhesus monkeys; experiment: Insulin potentiating effects in primates of Peptide No. 6 compared to deletion peptide (plasma glucose); format: in vivo, Rhesus monkey
Protocol: In a manner analogous to Study C, above, Peptide No. 6 and deletion peptide were studied for insulin potentiating effects in Rhesus monkeys. Blood samples were drawn from normal female monkeys (in […] experimental groups of 3) five minutes before administration of an oral dose of 3.0 ml/kg of 0.5 g/ml glucose and intramuscular administration of either: (1) 0.5 ml/kg phosphate buffered saline (PBS), pH 7.4; (2) deletion peptide 0.1 ml/kg of 1.0 mg/ml solution in PBS; (3) deletion peptide as above combined with 0.5 ml/kg of 20 mU/ml insulin in PBS; or (4) insulin alone as above or (5) Peptide No. 6 0.1 ml/kg of a 0.5 mg/ml solution in PBS combined with insulin as above. Blood samples were then periodically withdrawn over two hours and analyzed for plasma glucose levels.

normal rats [3] = conditions: cited from earlier work
[4] = system: ob/ob, ob/+, db/db and db/m mice; experiment: Insulin potentiating effects of Peptide No. 6 compared to DP in mice (plasma glucose); format: in vivo, mouse; conditions: for Plasma Glucose (mg/dL at 60 min.), Glucose + Insulin + peptide, Mouse db/db / Plasma Glucose (mg/dL at 60 min.), Glucose + Insulin + peptide, Mouse db/m (normal) / Plasma Glucose (mg/dL at 60 min.), Glucose + Insulin + peptide, Mouse ob/+ (normal) / Plasma Glucose (mg/dL at 60 min.), Glucose + Insulin + peptide, Mouse ob/ob: i.p. glucose + insulin 0.001 mU/10 g + peptide 5 μg/10 g
Protocol: (§1) A study was conducted to determine the relative insulin potentiating effects of Peptide No. 6 as compared to those of deletion peptide ("hGH32-46 ").
(§2) Animals in test groups of five each were meployed in these procedures. Sprague-Dawley rats weighed approximately 200 grams; homozygous genetically abnormal mice (db/db and ob/ob) had weights in the range of 40 to 60 grams; heterozygous normal mice all weighed approximately 25 grams. Glucose was administered intraperitoneally at a dosage of […] of a solution containing 135 mg/ml glucose, except for one group of rats which were given an oral dose of 1 ml of 270 mg/ml glucose solution. Insulin was intraperitoneally administered at a dose of 0.001 mU/10 g and both Peptide No. 6 and deletion peptide were administered were simultaneously administered at a dose of 5 μg/10 g.

Sprague-Dawley rats = experiment: Insulin potentiating effects of Peptide No. 6 compared to DP in rats (plasma glucose); format: in vivo; conditions: for Plasma Glucose (mg/dL at 60 min.), Glucose + Insulin + peptide, Rat (normal): i.p. glucose + insulin 0.001 mU/10 g + peptide 5 μg/10 g
Protocol: as §1, §2

[5] = system: GT-impaired strain of mice (YS/Wf Nctr); conditions: cited from earlier work
[6] = system: various model animal test systems; conditions: cited from earlier work
[7] = system: normal male Sprague-Dawley rats; experiment: Insulin potentiating effects in normal rats (plasma glucose after i.p. glucose load); format: in vivo, rat; conditions: for Plasma Glucose (mg/dL at 60 min.), Glucose + Insulin + Peptide: rats fasted 18 h, i.p. 1.0 ml 0.75M glucose + 15 mU insulin + 25 μg peptide, mean ± standard error
Protocol: A study was conducted to determine insulin potentiating effects of Peptide Nos. 3, 5, and 6. Also tested was a dipeptide NH2 -Ile-Pro-COOH, a dipeptide outside the scope of the invention. Test groups of 5 normal male Sprague-Dawley rats weighing about 200 grams were fasted for 18 hours and received (intraperitoneally in rapid succession) 1.0 ml of 0.75M glucose, and either 15 mU of insulin with 1% bovine serum ablumin in normal saline (pH 7.4) or a mixture of insulin as above with 25 μg Peptide Nos. 3, 5, 6 and dipeptide. Controls received only bovine serum albumin and saline. Blood was drawn after one hour and plasma glucose levels were determined.

db/db mice = experiment: Insulin potentiating effects on genetically altered mice at differing ages (plasma glucose); format: in vivo, mouse; conditions: for Plasma Glucose (mg/dL at 60 min.), Age: 8 weeks, Glucose + Insulin + Peptide: db/db mice aged 8 weeks; for Plasma Glucose (mg/dL at 60 min.), Age: 8 weeks, Glucose + Insulin + Peptide / Plasma Glucose (mg/dL at 60 min.), Age: 14 weeks, Glucose + Insulin + Peptide: i.p. glucose + insulin 0.001 mU/10 g + peptide 5 μg/10 g; for Plasma Glucose (mg/dL at 60 min.), Age: 14 weeks, Glucose + Insulin + Peptide: db/db mice aged 14 weeks
Protocol: A study was conducted to ascertain insulin potentiating effects of Peptide Nos. 6, 9 and 10 on db/db mice aged 8 weeks and 14 weeks.
Test groups of 5 each of db/db mice weighing from 40 to 60 grams each were used. Glucose was administered intraperitoneally at a dosage of […] of a solution containing 135 mg/ml glucose. Insulin was intraperitoneally administered at a dose of 0.001 mU/10 g and Peptide Nos. 6, 9 and 10 were each simultaneously administered at a dose of 5 μg/10 g.

normal rats [8] = conditions: cited from earlier work; remark: listed apart in the source
rabbits = conditions: cited from earlier work

In the case of `CC[C@H](C)[C@H](NC(=O)[C@H](Cc1ccc(O)cc1)NC(=O)[C@H](C)NC(=O)[C@H](CCC(=O)O)NC(=O)[C@@H](N)CCC(=O)O)C(=O)N1CCC[C@H]1C(=O)N[C@@H](CCCCN)C(=O)N[C@@H](CCC(=O)O)C(=O)N[C@@H](CCC(N)=O)C(=O)N[C@@H](CCCCN)C(=O)N[C@@H](Cc1ccc(O)cc1)C(=O)N[C@@H](CO)C(=O)N[C@@H](Cc1ccccc1)C(=O)N[C@@H](CC(C)C)C(=O)N[C@@H](CCC(N)=O)C(=O)O` [hGH32-46, NH2 -Glu-Glu-Ala-Tyr-Ile-Pro-Lys-Glu-Gln-Lys-Tyr-Ser-Phe-Leu-Gln-COOH] (H-EEAYIPKEQKYSFLQ-OH), the “in vitro glucose utilization of fat cells” value ([1]; insulin-stimulated fat cells of older obese rats, Frigeri et al.) is given as “in vitro increase in glucose utilization”, the Plasma Glucose (mg/dL), Glucose + Insulin + hGH32-46, +5 min. ([2]; +5 min., oral glucose + i.m. insulin + peptide 0.1 ml/kg of 1.0 mg/ml) is given as 64 ± 4 mg/dL and the Plasma Glucose (mg/dL), Glucose + Insulin + hGH32-46, +15 min. ([2]; +15 min., oral glucose + i.m. insulin + peptide 0.1 ml/kg of 1.0 mg/ml) is given as 69 ± 9 mg/dL. The Plasma Glucose (mg/dL), Glucose + Insulin + hGH32-46, +30 min. ([2]; +30 min., oral glucose + i.m. insulin + peptide 0.1 ml/kg of 1.0 mg/ml) was 80 ± 5.3 mg/dL, the Plasma Glucose (mg/dL), Glucose + Insulin + hGH32-46, +45 min. ([2]; +45 min., oral glucose + i.m. insulin + peptide 0.1 ml/kg of 1.0 mg/ml) was 80 ± 5.9 mg/dL and the Plasma Glucose (mg/dL), Glucose + Insulin + hGH32-46, +60 min. ([2]; +60 min., oral glucose + i.m. insulin + peptide 0.1 ml/kg of 1.0 mg/ml) was 96 ± 8 mg/dL. For the same compound, the Plasma Glucose (mg/dL), Glucose + Insulin + hGH32-46, +120 min. ([2]; +120 min., oral glucose + i.m. insulin + peptide 0.1 ml/kg of 1.0 mg/ml) was 97 ± 6.6 mg/dL, the “late increases in free fatty acids and glycemic effects” value (normal rats [3]) was “did not show either the late increases in free fatty acids nor the glycemic effects which are characteristic of intact hGH” and the Plasma Glucose (mg/dL at 60 min.), Glucose + Insulin + peptide, Mouse db/db [4] was 134 ± 13 mg/dL. The Plasma Glucose (mg/dL at 60 min.), Glucose + Insulin + peptide, Mouse db/m (normal) [4] was 49 ± 12 mg/dL, the Plasma Glucose (mg/dL at 60 min.), Glucose + Insulin + peptide, Mouse ob/+ (normal) [4] was 56 ± 9 mg/dL and the Plasma Glucose (mg/dL at 60 min.), Glucose + Insulin + peptide, Mouse ob/ob [4] was 138 ± 11 mg/dL. The Plasma Glucose (mg/dL at 60 min.), Glucose + Insulin + peptide, Rat* (normal) (Sprague-Dawley rats; glucose administered orally (1 ml of 270 mg/ml) + insulin 0.001 mU/10 g + peptide 5 μg/10 g) was 93.3 ± 14 mg/dL, the Plasma Glucose (mg/dL at 60 min.), Glucose + Insulin + peptide, Rat (normal) (Sprague-Dawley rats) was 73 ± 10 mg/dL and the glucose tolerance [5] was “unspecified degree of improvement in glucose tolerance”. The “potentiation of insulin activity” value ([6]; contemporaneously administered with exogenous insulin) was “potentiate insulin activity and augment the hypoglycemic effectiveness of even quite small parenteral doses of insulin” and the “hypoglycemic effects of the peptide alone” value ([6]; various model animal test systems) was “lacked hypoglycemic effects”.
For `CC[C@H](C)[C@H](NC(=O)[C@H](Cc1ccc(O)cc1)NC(=O)[C@H](C)NC(=O)[C@H](CCC(=O)O)NC(=O)[C@@H](N)CCC(=O)O)C(=O)N1CCC[C@H]1C(=O)N[C@@H](CCCCN)C(=O)O` [Peptide No. 6, GLU--GLU--ALA--TYR--ILE--PRO--LYS] (H-EEAYIPK-OH), the “insulin potentiating effect (in words)” value ([7]; normal rats, Table III) was “exceptionally active insulin potentiator”, the Plasma Glucose (mg/dL at 60 min.), Glucose + Insulin + Peptide [7] was 52 ± 28 mg/dL and the Plasma Glucose (mg/dL), Glucose + Insulin + Peptide No. 6, +5 min. ([2]; +5 min., oral glucose + i.m. insulin + peptide 0.1 ml/kg of 0.5 mg/ml) was 62 ± 6 mg/dL. The Plasma Glucose (mg/dL), Glucose + Insulin + Peptide No. 6, +15 min. ([2]; +15 min., oral glucose + i.m. insulin + peptide 0.1 ml/kg of 0.5 mg/ml) was 69.5 ± 6 mg/dL, the Plasma Glucose (mg/dL), Glucose + Insulin + Peptide No. 6, +30 min. ([2]; +30 min., oral glucose + i.m. insulin + peptide 0.1 ml/kg of 0.5 mg/ml) was 68 ± 9.7 mg/dL and the Plasma Glucose (mg/dL), Glucose + Insulin + Peptide No. 6, +45 min. ([2]; +45 min., oral glucose + i.m. insulin + peptide 0.1 ml/kg of 0.5 mg/ml) was 73 ± 3.5 mg/dL. The Plasma Glucose (mg/dL), Glucose + Insulin + Peptide No. 6, +60 min. ([2]; +60 min., oral glucose + i.m. insulin + peptide 0.1 ml/kg of 0.5 mg/ml) was 79 ± 6.5 mg/dL, the Plasma Glucose (mg/dL), Glucose + Insulin + Peptide No. 6, +120 min. ([2]; +120 min., oral glucose + i.m. insulin + peptide 0.1 ml/kg of 0.5 mg/ml) was 88 ± 12 mg/dL and the “insulin potentiating effect relative to deletion peptide (in words)” value ([2]; Table VI) was “essentially on par with, or superior on a weight basis to, those of deletion peptide”. For the same compound, the Plasma Glucose (mg/dL at 60 min.), Glucose + Insulin + peptide, Mouse db/db [4] was 109 ± 22 mg/dL, the Plasma Glucose (mg/dL at 60 min.), Glucose + Insulin + peptide, Mouse db/m (normal) [4] was 22 ± 10 mg/dL and the Plasma Glucose (mg/dL at 60 min.), Glucose + Insulin + peptide, Mouse ob/+ (normal) [4] was 28.5 ± 5 mg/dL. For the same compound, the Plasma Glucose (mg/dL at 60 min.), Glucose + Insulin + peptide, Mouse ob/ob [4] was 118 ± 20 mg/dL, the “insulin potentiating effect relative to deletion peptide (in words)” value ([4]; mice and rats, Table V) was “uniformly more effective in potentiating insulin effects than deletion peptide alone” and the “insulin potentiating effect (in words)” value (db/db mice; db/db mice aged 8 and 14 weeks, Table IV) was “significant effectiveness”. For the same compound, the Plasma Glucose (mg/dL at 60 min.), Age: 8 weeks, Glucose + Insulin + Peptide (db/db mice) was 92.3 ± 12 mg/dL, the Plasma Glucose (mg/dL at 60 min.), Age: 14 weeks, Glucose + Insulin + Peptide (db/db mice) was 124 ± 34 mg/dL and the Plasma Glucose (mg/dL at 60 min.), Glucose + Insulin + peptide, Rat (normal) (Sprague-Dawley rats) was 52 ± 6 mg/dL.
For “synthetic tetradecapeptide having a sequence of amino acids copying residues at positions 31 through 44: literature tetradecapeptide copying hGH residues 31 through 44 (Yudaev et al.) (FEEAYIPKEQKYSF; UniProt P01241 57-70, looked up, fragment)”, the “in vitro effect on fat cells” value ([1]; Yudaev et al. 1983) is listed as “substantially the same in vitro effect on fat cells”, the “in vivo hypoglycemic effect” value (normal rats [8]) is listed as “absence of any in vivo hypoglycemic effect” and the “in vivo hypoglycemic effect” value (rabbits) is listed as “absence of any in vivo hypoglycemic effect”.
For `CC[C@H](C)[C@H](NC(=O)[C@H](Cc1ccc(O)cc1)NC(=O)[C@@H](C)NC(=O)[C@H](CCC(=O)O)NC(=O)[C@@H](N)CCC(=O)O)C(=O)N1CCC[C@H]1C(=O)N[C@@H](CCCCN)C(=O)O` [Peptide No. 9] (H-EE[dA]YIPK-OH), the Plasma Glucose (mg/dL at 60 min.), Age: 8 weeks, Glucose + Insulin + Peptide (db/db mice) was 90.8 ± 16 mg/dL and the Plasma Glucose (mg/dL at 60 min.), Age: 14 weeks, Glucose + Insulin + Peptide (db/db mice) was 228 ± 38 mg/dL.
`CC[C@H](C)[C@H](N)C(=O)N1CCC[C@H]1C(=O)O` [NH2 --Ile--Pro--COOH, NH2 -Ile-Pro-COOH] (H-Ile-Pro-OH) showed a Plasma Glucose (mg/dL at 60 min.), Glucose + Insulin + Peptide [7] of 95 ± 30 mg/dL.
